One data set concerns SARS-CoV-2. The data set is classed as cell-based.
For data set [1] the following is noted: cited from earlier work.
Another data set is described as follows: in vitro. As to conditions: Vero E6 cells.
For data set [2] the following is noted: cited from earlier work. The source holds these as a separate data set.
The conditions of data set [3]: rhesus monkey, in vivo.
In the next data set the target is T1, human ACE2 (Homo sapiens, UniProt Q9BYF1).
T1 construct: purchased Sino Biological Inc. 10108-H08B
The data set can be described thus: SPR binding to immobilized human ACE2 (BIAcore S200). The conditions noted are these: read-out: ka. (SPR reads the build-up and loss of mass on a sensor chip optically.)

For data set [4] the following is noted: preclinical and clinical studies; cited from earlier work.
The target of a further data set is T2, cathepsin L (Homo sapiens, UniProt P07711).
T2 construct: purchased Abcam ab65306
Kind of data set: Cathepsin L activity assay (fluorometric kit). The data set is classed as biochemical.

Data set [5] has as its target T3, SARS-CoV-2 spike protein–ACE2 interaction (Homo sapiens, UniProt Q9BYF1). The data set can be described thus: ELISA of SARS-CoV-2 spike protein binding to ACE2 crosslinked to microplates. The format is biochemical. As to conditions: drug 1 μM; 1 h 37 °C. In general terms: In an ELISA, binding on a coated surface is turned into a signal by an enzyme label.
For data set [6], the target named is T3, SARS-CoV-2 spike protein–ACE2 interaction. The data set can be described thus: co-IP of SARS-CoV-2 spike protein with ACE2, western blot. The conditions noted are these: drug 10 μM; western blot with anti-ACE2 antibody. The data set is classed as biochemical.
Method: Co-IP was performed as follows. […] The blots were incubated with anti-rabbit IgG HRP (KPL, USA) and imaged using electrochemiluminescence (ECL, ThermoFisher, USA).

Here are results for five molecules from PMC7705431 (Cell Research, 2020).

T3 sequence (Q9BYF1 18-740): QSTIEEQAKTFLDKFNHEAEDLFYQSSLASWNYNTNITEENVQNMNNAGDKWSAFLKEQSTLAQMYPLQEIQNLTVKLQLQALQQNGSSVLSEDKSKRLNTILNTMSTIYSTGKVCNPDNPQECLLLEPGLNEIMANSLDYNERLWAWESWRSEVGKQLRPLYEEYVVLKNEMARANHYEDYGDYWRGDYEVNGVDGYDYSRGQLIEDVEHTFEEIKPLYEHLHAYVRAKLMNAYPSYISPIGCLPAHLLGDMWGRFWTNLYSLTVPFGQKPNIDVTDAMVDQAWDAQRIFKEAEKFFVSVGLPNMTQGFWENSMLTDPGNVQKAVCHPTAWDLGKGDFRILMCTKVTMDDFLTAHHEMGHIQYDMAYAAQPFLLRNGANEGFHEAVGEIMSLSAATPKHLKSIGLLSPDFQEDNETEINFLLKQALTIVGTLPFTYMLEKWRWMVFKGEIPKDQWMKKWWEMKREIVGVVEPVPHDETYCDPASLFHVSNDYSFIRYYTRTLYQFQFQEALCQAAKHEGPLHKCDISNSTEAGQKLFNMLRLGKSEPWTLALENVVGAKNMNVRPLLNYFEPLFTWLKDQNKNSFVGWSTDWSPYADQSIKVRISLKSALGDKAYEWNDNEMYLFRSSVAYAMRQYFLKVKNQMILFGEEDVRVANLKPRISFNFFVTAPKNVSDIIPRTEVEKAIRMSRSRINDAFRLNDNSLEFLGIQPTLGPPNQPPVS
T2 sequence (P07711 114-333, species assumed): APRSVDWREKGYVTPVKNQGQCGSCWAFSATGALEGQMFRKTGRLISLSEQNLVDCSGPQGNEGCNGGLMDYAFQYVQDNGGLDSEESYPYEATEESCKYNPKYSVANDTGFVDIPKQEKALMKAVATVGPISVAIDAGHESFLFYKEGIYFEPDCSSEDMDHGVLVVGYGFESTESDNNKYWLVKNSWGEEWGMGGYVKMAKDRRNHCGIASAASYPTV
T1 sequence (Q9BYF1 18-805): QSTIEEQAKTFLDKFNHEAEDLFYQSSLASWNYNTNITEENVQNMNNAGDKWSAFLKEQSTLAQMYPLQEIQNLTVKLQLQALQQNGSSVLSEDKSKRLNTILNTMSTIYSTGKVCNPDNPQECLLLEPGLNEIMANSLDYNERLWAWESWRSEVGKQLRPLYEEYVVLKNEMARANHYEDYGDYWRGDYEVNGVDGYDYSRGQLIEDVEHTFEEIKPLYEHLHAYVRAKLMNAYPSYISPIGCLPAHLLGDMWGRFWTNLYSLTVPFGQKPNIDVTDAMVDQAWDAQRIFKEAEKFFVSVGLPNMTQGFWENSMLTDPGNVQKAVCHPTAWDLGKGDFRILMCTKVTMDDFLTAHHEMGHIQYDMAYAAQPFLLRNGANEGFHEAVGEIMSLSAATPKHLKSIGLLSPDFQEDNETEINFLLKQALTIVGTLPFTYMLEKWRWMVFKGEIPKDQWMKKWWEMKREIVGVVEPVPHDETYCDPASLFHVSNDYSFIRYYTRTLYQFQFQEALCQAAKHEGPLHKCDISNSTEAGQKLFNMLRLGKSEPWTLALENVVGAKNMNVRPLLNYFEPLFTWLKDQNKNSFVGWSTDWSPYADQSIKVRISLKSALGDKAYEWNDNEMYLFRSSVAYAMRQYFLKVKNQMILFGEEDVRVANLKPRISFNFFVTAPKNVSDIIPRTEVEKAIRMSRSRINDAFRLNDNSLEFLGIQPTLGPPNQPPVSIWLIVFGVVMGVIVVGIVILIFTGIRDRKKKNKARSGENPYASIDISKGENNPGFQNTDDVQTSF
Method for cathepsin L: A positive control of cathepsin L inhibitor I (CTSL, MG-101, 20 μM) was provided in the kit. A total of 2 μL of 10 mM Ac-FR-AFC substrate was added to each well. The samples were incubated at 37 °C for 2 h. Fluorescence was measured using a multifunctional microplate reader (Cytation 3, BioTek, Winooski, VT, USA), at an excitation wavelength of 400 nm and an emission wavelength of 505 nm.
Method for human ACE2: The remaining activated sites on the chip were blocked with 75 μL of ethanolamine (1 M, pH 8.5). […] The equilibrium dissociation constant (KD) for binding as well as the association (Ka) and dissociation (Kd) rate constants were determined using the BIA evaluation program (GE, USA).

As for `CCC(CC)COC(=O)[C@H](C)N[P@](=O)(OC[C@H]1O[C@@](C#N)(c2ccc3c(N)ncnn23)[C@H](O)[C@@H]1O)Oc1ccccc1` [Remdesivir], in the data set with SARS-CoV-2, the “inhibition of CPEs” value is “significantly inhibited the CPEs”.

The term CC50 denotes the concentration at which the toxic effect on the cells reaches its halfway point. Low readings indicate greater toxicity to the cells, high ones lower toxicity to the cells. Usually inhibition stands for the relative decrease from the control value, in per cent. Regarding `CN[C@H]1C(=O)N[C@@H]2Cc3ccc(cc3)Oc3cc4cc(c3O[C@@H]3O[C@H](C(=O)O)[C@@H](O)[C@H](O)[C@H]3NC(=O)CCCCCCCCC(C)C)Oc3ccc(cc3Cl)[C@@H](O)[C@@H]3NC(=O)[C@H](NC(=O)[C@@H]4NC(=O)[C@@H](NC2=O)c2cc(cc(O)c2Cl)Oc2cc1ccc2O)c1ccc(O)c(c1)-c1c(O[C@H]2O[C@H](CO)[C@@H](O)[C@H](O)[C@@H]2O)cc(O)cc1[C@@H](C(=O)NCCCN(C)C)NC3=O` [dalbavancin], the protein-bound in plasma in data set [1] was > 90%. In “in vitro”, the CC50 was > 3.2 µM. Moreover, in data set [2], the plasma half-life was 120 to 170 h. Besides, in data set [3], the serum half-life is 120 to 170 h. The kon at human ACE2 was determined as 360000 M⁻¹ s⁻¹. Further, the tolerability entry in [4] is reported as “well tolerated”. Moreover, at cathepsin L (read-out: inhibition of cathepsin L enzymatic activity), the inhibition at 400 µM was ~40%.

On to Oxiglutatione, for which the “inhibition of binding of SARS-CoV-2 spike protein to ACE2 (ELISA)” value in data set [5] was “inhibited the binding”. In [6], the “suppression of SARS-CoV-2 spike protein–ACE2 co-precipitation” value was “suppressed the interaction”.

Take Polymyxin B sulfate: the “suppression of SARS-CoV-2 spike protein–ACE2 co-precipitation” value in data set [6] is listed as “suppressed the interaction”.

Consider cathepsin L inhibitor I, for which the “inhibition of cathepsin L enzymatic activity” value against cathepsin L (20 μM, positive control, Ac-FR-AFC substrate, 37 °C 2 h) was ~ 100%.
